Assay results published in patent EP0725068A1 (TOKYO TANABE COMPANY LIMITED, priority 1993, dated 1995).
Structures can show the parent of a compound that is named as a salt. Where two headings read alike, the source gives them in different places.

What was measured:
colonic 5-HT3 receptors = target: T1, colonic 5-HT3 receptors (Cavia porcellus, UniProt O70212); assay: Colonic 5-HT3 receptor antagonism: inhibition of 2-methylserotonin-induced contraction of isolated distal colon (Test 1); format: biochemical, guinea pigs; settings: for M (×10^-9 Mole): molar antagonist concentration corresponding to pA2, guinea pig distal colon, 2-methylserotonin; for Kb: pA2, isolated guinea pig distal colon
T1 construct: the distal colons (3-10 cm from the anus) were isolated and suspended in a Magnus tube filled with Krebs solution; from tissue; host or cells: isolated distal colon of male Hartley guinea pig
T1 sequence (O70212 20-490): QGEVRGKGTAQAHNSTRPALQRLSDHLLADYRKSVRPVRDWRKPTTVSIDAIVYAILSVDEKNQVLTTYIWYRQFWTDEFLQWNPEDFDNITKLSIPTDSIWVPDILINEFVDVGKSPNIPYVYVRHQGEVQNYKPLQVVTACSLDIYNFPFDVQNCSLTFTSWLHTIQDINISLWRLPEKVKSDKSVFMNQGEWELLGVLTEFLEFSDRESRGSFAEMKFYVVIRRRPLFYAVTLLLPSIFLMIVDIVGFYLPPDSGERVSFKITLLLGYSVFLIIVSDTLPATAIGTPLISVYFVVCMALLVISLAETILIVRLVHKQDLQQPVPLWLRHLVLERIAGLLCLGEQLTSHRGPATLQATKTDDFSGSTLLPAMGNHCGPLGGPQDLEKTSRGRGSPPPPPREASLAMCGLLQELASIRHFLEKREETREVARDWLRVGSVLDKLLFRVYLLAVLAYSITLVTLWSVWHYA

cardiac 5-HT3 receptors = target: T2, cardiac 5-HT3 receptors (Rattus norvegicus, UniProt P35563); assay: Antagonism against von Bezold-Jarisch reflex (BJ reflex): serotonin-induced reflexive bradycardia (Test 2); format: in vivo, SD rats; settings: for ED50: rat, intravenous, 5 minutes prior to 30 µg/kg serotonin i.v., anesthetized male SD rats, read-out: ID50 (the source's name)
T2 construct: from tissue; host or cells: whole anaesthetised male SD rat (in vivo)
T2 sequence (P35563 24-483): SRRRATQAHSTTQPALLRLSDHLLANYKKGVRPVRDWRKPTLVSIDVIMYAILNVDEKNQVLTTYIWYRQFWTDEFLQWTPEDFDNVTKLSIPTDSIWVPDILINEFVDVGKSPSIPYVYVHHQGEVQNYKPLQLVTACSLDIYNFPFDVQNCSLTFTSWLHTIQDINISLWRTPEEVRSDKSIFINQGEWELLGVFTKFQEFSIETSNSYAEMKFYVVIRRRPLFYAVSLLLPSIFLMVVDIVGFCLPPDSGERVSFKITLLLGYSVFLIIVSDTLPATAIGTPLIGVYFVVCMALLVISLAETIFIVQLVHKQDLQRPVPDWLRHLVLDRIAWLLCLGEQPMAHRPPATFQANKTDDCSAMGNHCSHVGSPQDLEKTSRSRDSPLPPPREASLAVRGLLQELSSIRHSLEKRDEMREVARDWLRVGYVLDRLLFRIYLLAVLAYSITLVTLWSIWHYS
Method: This test was conducted following the method of Fozard, at al. (Arch. Pharmacology, 326, 36-44, 1984). Male SD rats with a body weight of around 300 g were anesthetized by intraabdominal administration of 1.25 g/kg urethane, and an intravenous injection cannula was inserted in the right femoral vein while a sphygmomanometric cannula was inserted into the left femoral artery. The pulse was determined by measuring the electrocardiogram R waves (secondary induction) with an instantaneous pulse rate meter. After confirming satisfactory reproducibility of the reflexive bradycardia induced by intravenous administration of 30 µg/kg serotonin, the test compounds were intravenously administered 5 minutes prior to serotonin administration, the inhibition rates with respect to the initial values were found and the 50% inhibition doses (ID50) were calculated.

[1] = tested on: restraint stress-induced diarrhea; assay: Inhibiting effect on restraint stress-induced diarrhea, oral administration (Test 3); format: in vivo, Wistar rats; settings: for No. of animals with diarrhea / No. of animals used: feces observed 5 hours; for inhibition at 0.01 mg/kg: Rattus norvegicus, po, 1 h, read-out: Inhibition rate
Method: This test was conducted following the method of Miyata, et al. (The Journal of Pharmacology and Experimental Therapeutics Vol.261, No.1, 297 (1992)). Nine to ten-week-old male Wistar rats starved overnight were placed in stress cages and their feces produced in 5 hours were observed. Of 15 rats, 14 developed diarrhea. The test compounds were administered orally one hour prior to placement in the stress cage, and the rate of inhibition on diarrhea was measured.

stress-related diarrhea = settings: animal models; J. Pharmacol. Exp. Ther. 261, 297 (1992); cited from earlier work
[2] = contraction induced by 2-methylserotonin
[3] = 10μg/kg orally one hour prior to stress cage

Compound	M (×10^-9 Mole) (colonic 5-HT3 receptors)	Kb (colonic 5-HT3 receptors; [2])	further results
Cc1[nH]cnc1CN1CCc2c(c3ccccc3n2C)C1=O.Cl [Allosetron hydrochloride, 2,3,4,5-tetrahydro-5-methyl-2-[(5-methyl-1H-imidazol-4-yl)methyl]-1H-pyrido[4,3-b]indol-1-one hydrochloride]	21 ×10^-9 Mole	20 nM	ED50 (cardiac 5-HT3 receptors): 0.28 µg/kg
Cc1[nH]cnc1CN1CCc2c(c3cccc4c3n2C(c2ccccc2)CC4)C1=O.Cl (stereo not drawn) [Compound 1, 5,6,8,9,10,11-hexahydro-10-[(5-methyl-1H-imidazol-4-yl)methyl]-6-phenyl-11-oxo-4H-pyrido[3',4':4,5]pyrrolo[3,2,1-ij] quinoline hydrochloride]	0.41 ×10^-9 Mole	0.398 nM	selectivity for colonic 5-HT3 receptors relative to Allosetron (colonic 5-HT3 receptors; from Tests 1 and 2 (colon vs heart), vs Allosetron): about 90 times; selectivity for colonic 5-HT3 receptors relative to Ondansetron (colonic 5-HT3 receptors; from Tests 1 and 2 (colon vs heart), vs Ondansetron): about 125 times; selectivity for colonic 5-HT3 receptors relative to YM-060 (colonic 5-HT3 receptors; from Tests 1 and 2 (colon vs heart), vs YM-060): about 190 times; selectivity for colonic 5-HT3 receptors relative to compound A (colonic 5-HT3 receptors; from Tests 1 and 2 (colon vs heart), vs compound A): about 100 times; activity on the heart receptors relative to Ondansetron (cardiac 5-HT3 receptors; BJ reflex ID50 ratio, vs Ondansetron): about 4 times; activity on the heart receptors relative to YM-060 (cardiac 5-HT3 receptors; BJ reflex ID50 ratio, vs YM-060): about 1/19; ED50 (cardiac 5-HT3 receptors): 0.5 µg/kg; No. of animals with diarrhea / No. of animals used [1, 3]: 5/10; inhibition at 0.01 mg/kg [1]: 50%
Cc1[nH]cnc1CN1CCc2c(c3cccc4c3n2-c2ccccc2CC4)C1=O [G, 3-[(4-methyl-1-H-imidazol-5-yl)methyl]-1,2,3,4,8,9-hexahydro-pyrido[4',3':2,3]indolo[1,7a,7-ab][1]benzazepin-4-one]	>10 ×10^-9 Mole	> 10 nM	–
Cc1[nH]cnc1CN1CCc2c(c3cccc4c3n2CCC4)C1=O [A, 5,6,9,10-tetrahydro-10-[(5-methyl-1H-imidazol-4-yl)methyl]-4H-pyrido[3',4':4,5]pyrrolo[3,2,1-ij] quinolin-11(8H)-one]	10 ×10^-9 Mole	10 nM	ED50 (cardiac 5-HT3 receptors): 0.11 µg/kg; No. of animals with diarrhea / No. of animals used [1, 3]: 8/10; inhibition at 0.01 mg/kg [1]: 20%
Cc1[nH]cnc1CN1CCc2c(c3cccc4c3n2CC4)C1=O [B, 4,5,7,8-tetrahydro-9-[(5-methyl-1H-imidazol-4-yl)methyl]-pyrido[4,3-b]pyrrolo[3,2,1-hi]indol-10(9H)-one]	10 ×10^-9 Mole	> 10 nM	–
Cc1[nH]cnc1CN1CCc2c(c3cccc4c3n2CCCC4)C1=O [E]	>10 ×10^-9 Mole	–	pA2 (colonic 5-HT3 receptors; isolated guinea pig distal colon, contraction induced by 2-methylserotonin): <8.0
Cc1[nH]cnc1CN1CCc2c(c3cccc4c3n2CCO4)C1=O [C, 1,2,9,10-tetrahydro-8-[(5-methyl-1H-imidazol-4-yl)methyl]pyrido[3',4':4,5]pyrrolo[1,2,3-de][1,4]benzoxadin-7(8H)-one]	>10 ×10^-9 Mole	> 10 nM	–
Cc1[nH]cnc1CN1CCCc2c(c3cccc4c3n2CC4)C1=O [D, 4,5,7,8,9,10-hexahydro-10-[(5-methyl-1H-imidazol-4-yl)methyl]-11H-azepino[4,3-b]pyrrolo[3,2,1-hi]indol-11-one]	>10 ×10^-9 Mole	> 10 nM	–
Cc1nccn1CC1CCc2c(c3ccccc3n2C)C1=O (stereo not drawn) [Ondansetron hydrochloride, 1,2,3,4-tetrahydro-9-methyl-3-[(2-methyl-1H-imidazol-1-yl)methyl]-4H-carbazol-4-one hydrochloride dihydrate]	227 ×10^-9 Mole	251 nM	ED50 (cardiac 5-HT3 receptors): 2 µg/kg; suppression of stress-related diarrhea (stress-related diarrhea): suppress stress-related diarrhea in animal models
O=C1c2c(n3c4c(cccc24)CCC3)CCN1C1CN2CCC1CC2 (stereo not drawn) [I, 10-(1-azabicyclo-[2,2,2]oct-3-yl)-5,6,8,9,10,11-hexahydro-4H-pyrido[3',4':4,5]pyrrolo[3,2,1-ij]quinolin-11-one]	>10 ×10^-9 Mole	> 10 nM	–
Cc1[nH]cnc1CN1CCCc2c(c3cccc4c3n2CCC4)C1=O [F, 11-[(5-methyl-1H-imidazol-4-yl)methyl]-5,6,9,10,11,12-hexahydro-4H,8H-azepino[3',4':4,5]pyrrolo[3,2,1-ij]quinolin-12-one]	>10 ×10^-9 Mole	> 10 nM	–
CN1C2CCC1CC(N1CCc3c(c4cccc5c4n3CCC5)C1=O)C2 (stereo not drawn) [H]	>10 ×10^-9 Mole	> 10 nM	–
Cl.Cn1cc(C(=O)[C@@H]2CCc3nc[nH]c3C2)c2ccccc21 [YM-060, (R)-(-)-5-[(1-methylindol-3-yl)carbonyl]-4,5,6,7-tetrahydrobenzimidazole hydrochloride]	4.5 ×10^-9 Mole	3.98 nM	No. of animals with diarrhea / No. of animals used [1, 3]: 7/10; inhibition at 0.01 mg/kg ([1]; 10μg/kg orally one hour prior to stress cage, inhibition of diarrhea): 30%; suppression of stress-related diarrhea (stress-related diarrhea): suppress stress-related diarrhea in animal models
CN1C2CCCC1CC(NC(=O)c1nn(C)c3ccccc13)C2 (stereo not drawn) [Granisetron, N-(endo-9-methyl-9-azabicyclo[3,3,1]non-3-yl)-1-methylindazol-3-carboxamide hydrochloride]	–	–	suppression of stress-related diarrhea (stress-related diarrhea): suppress stress-related diarrhea in animal models
